Test results from patent US9687467B2, “Diagnosis and treatment of taxane-resistant cancers” (Children's Medical Center Corporation, priority 2011, dated 2017).
Read-outs that look alike come from different tables or passages of the source.

Columns and labels:
T20.2 cells = assay: cells; format: cell-based; settings: Homo sapiens
Procedure: (FIG. 7A). The parental A549 cells, a cell line that became refractory during in vivo treatment with paclitaxel (T20.2 round 1) and the same cell line established after yet another round of in vivo paclitaxel treatment (T20.2 reinjection) were treated with paclitaxel and cell viability was assessed using the MTT assay. Represented are average LC50±s.e.m. determined by MTT assay for parental A549 cells (white boxes), **P<0.001, *P<0.05 as determined by Wilcoxon's rank sum test for T20.2 round 1 cells (hatched boxes) and for T20.2 re-injection cells (filled boxes). (FIG. 7B) The expression of miR-135a was examined in these cells by qRT-PCR. *P<0.05 as determined by Wilcoxon's rank sum test. […] The correlation between paclitaxel response and miR-135a expression was calculated using the Spearman's rank test. […] Subsequently, cells were treated with the indicated concentrations of paclitaxel and cell viability was assessed using the MTT assay. […]
Approximately 4×10^6 human A549 NSCLC cells were resuspended in 50% Matrigel (BD Biosciences, Bedford, Mass.) and injected subcutaneously into the hind flanks of 8-wk old male athymic (nu/nu) nude mice (Taconic Farms, Inc., Hudson, N.Y.). […] Tumor size was determined by digital caliper measurements (length and width in mm), and tumor volume (mm^3) was estimated using the formula (length×width^2)/2. […]

[1] = Mouse weight during paclitaxel treatment; format: in vivo, nude mice; settings: 15 mg/kg paclitaxel intraperitoneally 3 times per week
Procedure: FIG. 11 is a line graph indicating mouse weight in paclitaxel-treated and control groups. Tumor-bearing nude mice were treated i.p. with 15 mg/kg paclitaxel every other day. Animals were weighed before each injection on a digital scale. Each curve represents the mean weight±s.e.m. of 10 mice per day of treatment.
Approximately 4×10^6 human A549 NSCLC cells were resuspended in 50% Matrigel (BD Biosciences, Bedford, Mass.) and injected subcutaneously into the hind flanks of 8-wk old male athymic (nu/nu) nude mice (Taconic Farms, Inc., Hudson, N.Y.). When the average tumor volume reached ˜150 mm^3, mice (N=10 per group) were randomly assigned to the treatment or control group (Day 0). Mice were treated with vehicle (control) or 15 mg/kg paclitaxel (Bristol-Myers Squibb Co, Princeton, N.J.) intraperitoneally 3 times per week (on Mondays, Wednesdays, and Fridays). […] Tumor size was determined by digital caliper measurements (length and width in mm), and tumor volume (mm^3) was estimated using the formula (length×width^2)/2. Effects on tumor growth rate were assessed per mouse by determining the tumor volume on the day of treatment relative to the tumor volume on Day 0. Animals were sacrificed once morbidity became evident or their tumor size exceeded 1000 mm^3. […]

MES-SA^DX5 cells = assay: MTT cell viability assay, paclitaxel response after miRNA transfection; format: cell-based, human; settings: cells transfected with scrambled non-targeting miRNA, 100 nM paclitaxel
Procedure: The paclitaxel-resistant cell lines MES-SA^DX5 and A549^TR were transfected with a scrambled non-targeting miRNA (control) and an miR-135a mimic (mimic), respectively. Cells were subsequently treated with 100 nM paclitaxel and cell viability was assessed using the MTT assay (FIGS. 2A, 2B). The percentage of apoptotic cells was assessed by Annexin V-staining and FACS analysis (FIGS. 2C, 2D). Values are presented as percent cell survival in paclitaxel-treated cells relative to untreated cells. *P<0.05, **P<0.001 as determined by Wilcoxon's rank sum test.
Cell growth inhibition was determined by a 3-(4,5-dimethylthiazol-2-yl)-2,5-diphenyltetrazolium (MTT) bromide assay. Briefly, ˜2.5×10^4 cells were plated in a 96-well plate and paclitaxel was added in appropriate concentrations 24 hours later. […] Absorbance was determined using a 96-well SpectraMax plate reader (Molecular Devices, Sunnyvale, Calif.) at 560 nm and 650 nm (background).
Double-stranded RNA oligos representing a mature sequence that mimics endogenous miR-135a, anti-miR-135a designed to inhibit endogenous miR-135a, and anti-miR negative control were all obtained from Ambion™ and were transfected into cell lines at ˜50% confluence at 30 nM concentration with siLentFect (Bio-Rad™). […] The next day, luciferase activity was measured using the Dual-Glo® Luciferase assay system (Promega™, Madison, Wis.). […]

With `CC(=O)O[C@H]1C(=O)[C@@]2(C)[C@H]([C@H](OC(=O)c3ccccc3)[C@]3(O)C[C@H](OC(=O)[C@H](O)[C@@H](NC(=O)c4ccccc4)c4ccccc4)C(C)=C1C3(C)C)[C@]1(OC(C)=O)CO[C@@H]1C[C@@H]2O` [paclitaxel] the CC50 (T20.2 cells; read-out: median LC50, after one in vivo passage (T20.2 round 1), MTT, P=0.030) was 13.3 nM, the CC50 (T20.2 cells; read-out: median LC50, after re-injection (T20.2 reinjection), MTT, P=0.008) was 127 nM and the “mouse morbidity as measured by mouse weight” value [1] was “minimal effects on mouse morbidity”. For the same compound, the “cell survival in paclitaxel-treated cells relative to untreated cells” value (MES-SA^DX5 cells) was 102.2%.
